± gives the standard deviation of the averaged measurements.
Tests used:
Assay in all cases: level (log10 ratio to DMSO vehicle control); higher = higher biomarker level / cell amount than vehicle control
[1] = compound: O=C(O)C=C(C(F)(F)F)C(F)(F)F [3,3-Bis(trifluoromethyl)-2-propenoic acid] (in DMSO)
Method: (§1)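 BioMAP Diversity Plus panel of 12 human primary cell co-culture systems (3C, 4H, LPS, SAg, BT, BF4T, BE3C, CASM3C, HDF3CGF, KF3CT, MyoF, Mphg). Compounds were added 1 h before stimulation and left for 24 h (MyoF 48 h; BT 72 h for soluble read-outs or 6 d for IgG). Biomarkers were read by ELISA, cytotoxicity by SRB, PBMC viability and proliferation by Alamar Blue. Each well value was divided by the mean of 8 DMSO control wells on the same plate and log10 transformed; duplicate blinded samples were tested at 4 concentrations.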

[2] = compound: O=S(=O)(O)CCC(F)(F)C(F)(F)C(F)(F)C(F)(F)C(F)(F)C(F)(F)C(F)(F)C(F)(F)F [8:2 Fluorotelomer sulfonic acid] (in DMSO)
Method: as §1

Perfluorononanoic acid = compound: O=C(O)C(F)(F)C(F)(F)C(F)(F)C(F)(F)C(F)(F)C(F)(F)C(F)(F)C(F)(F)F [Perfluorononanoic acid] (in DMSO)
Method: as §1

Octafluoroadipic acid = compound: O=C(O)C(F)(F)C(F)(F)C(F)(F)C(F)(F)C(=O)O [Octafluoroadipic acid] (in DMSO)
Method: as §1

[3] = compound: O=C(O)C(F)(F)C(F)(F)C(F)(F)OC(F)(F)F [Perfluoro(4-methoxybutanoic) acid] (in DMSO)
Method: as §1

Perfluoroundecanoic acid = compound: O=C(O)C(F)(F)C(F)(F)C(F)(F)C(F)(F)C(F)(F)C(F)(F)C(F)(F)C(F)(F)C(F)(F)C(F)(F)F [Perfluoroundecanoic acid] (in DMSO); conditions: 6700 nM
Method: as §1

[4] = compound: OCC(F)(F)OC(F)(F)C(F)(F)OC(F)(F)C(F)(F)OC(F)(F)CO [1H,1H,11H,11H-Perfluorotetraethylene glycol] (in DMSO)
Method: as §1

Row | Test System | level (log10) ([1]; 6700 nM) | level (log10) ([1]; 20000 nM) | level (log10) ([1]; 60000 nM) | level (log10) ([2]; 6700 nM) | level (log10) ([2]; 20000 nM) | level (log10) ([2]; 60000 nM) | level (log10) (Perfluorononanoic acid; 6700 nM) | level (log10) (Perfluorononanoic acid; 20000 nM) | level (log10) (Octafluoroadipic acid; 6700 nM) | level (log10) (Octafluoroadipic acid; 20000 nM) | level (log10) (Octafluoroadipic acid; 60000 nM) | level (log10) ([3]; 6700 nM) | level (log10) ([3]; 20000 nM) | level (log10) ([3]; 60000 nM) | level (log10) (Perfluoroundecanoic acid) | level (log10) ([4]; 6700 nM) | level (log10) ([4]; 20000 nM) | level (log10) ([4]; 60000 nM)
1 | SAg:CCL2/MCP-1 | -0.0145 ± 0.00071 | -0.0535 ± 0.0078 | -0.079 ± 0.042 | -0.0035 ± 0.019 | 0 ± 0.0099 | -0.0025 ± 0.0078 | -0.0015 ± 0.0035 | 0.0555 ± 0.013 | -0.014 ± 0.02 | -0.0135 ± 0.0035 | 0.0015 ± 0.018 | -0.0325 ± 0.022 | -0.0225 ± 0.012 | 0.017 ± 0.024 | -0.0155 ± 0.0035 | -0.023 ± 0.038 | -0.0395 ± 0.03 | -0.094 ± 0.024
2 | BE3C:HLA-DR | -0.0175 ± 0.0064 | -0.0245 ± 0.011 | -0.0355 ± 0.016 | -0.0175 ± 0.037 | -0.111 ± 0.005 | -0.255 ± 0.0014 | -0.039 ± 0.064 | -0.066 ± 0.02 | 0 ± 0.021 | 0.0045 ± 0.018 | 0.012 ± 0.0028 | -0.0005 ± 0.019 | 0.007 ± 0.0071 | 0.021 ± 0.021 | -0.0815 ± 0.022 | -0.03 ± 0.011 | -0.016 ± 0.0014 | -0.163 ± 0.013
3 | SAg:CD38 | 0.0025 ± 0.013 | -0.019 ± 0.017 | -0.073 ± 0.0028 | -0.0175 ± 0.04 | -0.02 ± 0.034 | -0.0595 ± 0.053 | 0.0155 ± 0.069 | 0.0205 ± 0.056 | -0.0415 ± 0.023 | -0.026 ± 0.017 | -0.0265 ± 0.0021 | -0.0375 ± 0.016 | -0.0225 ± 0.005 | -0.0195 ± 0.0035 | -0.0175 ± 0.022 | -0.0035 ± 0.049 | -0.0255 ± 0.023 | -0.0895 ± 0.033
4 | SAg:CXCL9/MIG | -0.0065 ± 0.012 | -0.017 ± 0.0099 | 0.006 ± 0.0071 | 0.0005 ± 0.018 | -0.008 ± 0.0028 | 0.001 ± 0.0057 | 0.005 ± 0.017 | -0.004 ± 0.013 | -0.0075 ± 0.016 | 0.005 ± 0.0028 | 0.011 ± 0.0057 | -0.0025 ± 0.00071 | -0.0005 ± 0.0092 | 0.011 ± 0.0028 | 0.0005 ± 0.0064 | -0.0095 ± 0.005 | 0.0095 ± 0.0035 | 0.015 ± 0.0071
5 | LPS:CD40 | -0.055 ± 0.024 | -0.061 ± 0.047 | -0.184 | 0.037 ± 0.016 | -0.0195 ± 0.021 | -0.128 ± 0.024 | -0.0305 ± 0.019 | -0.039 ± 0.011 | -0.0035 ± 0.04 | -0.005 ± 0.0071 | -0.0245 ± 0.0064 | -0.0385 ± 0.06 | 0 ± 0.055 | -0.0465 ± 0.094 | -0.019 ± 0.05 | -0.0565 ± 0.026 | -0.058 ± 0.054 | -0.126 ± 0.035
6 | SAg:CD40 | 0.0205 ± 0.005 | -0.01 ± 0.017 | -0.094 ± 0.038 | -0.013 ± 0.051 | -0.0215 ± 0.021 | -0.071 ± 0.051 | -0.0285 ± 0.044 | -0.057 ± 0.02 | -0.0135 ± 0.015 | -0.013 ± 0.023 | -0.025 ± 0.016 | -0.029 ± 0.023 | -0.034 ± 0.045 | -0.034 ± 0.052 | -0.013 ± 0.0028 | 0.011 ± 0.03 | -0.035 ± 0.044 | -0.132 ± 0.043
7 | LPS:sTNF-alpha | -0.0305 ± 0.042 | 0.0195 ± 0.023 | -0.0025 ± 0.035 | 0.0095 ± 0.011 | -0.006 ± 0.0099 | -0.212 ± 0.12 | -0.0115 ± 0.028 | 0.0115 ± 0.025 | -0.0035 ± 0.0035 | 0.0155 ± 0.005 | 0.0125 ± 0.018 | -0.017 ± 0.0071 | -0.0055 ± 0.005 | -0.0115 ± 0.00071 | -0.0415 ± 0.00071 | 0.0035 ± 0.0078 | 0.002 ± 0.0085 | -0.082 ± 0.0099
8 | BT:B cell Proliferation | -0.0145 ± 0.0021 | -0.0385 ± 0.0035 | -0.121 ± 0.0064 | 0.016 ± 0.016 | 0.0415 ± 0.005 | 0.0475 ± 0.033 | 0.0085 ± 0.0092 | 0.0365 ± 0.022 | -0.014 ± 0.0028 | -0.023 ± 0.016 | 0.005 ± 0.031 | -0.009 ± 0.034 | -0.0165 ± 0.013 | -0.006 ± 0.0099 | -0.0035 ± 0.025 | 0.0215 ± 0.0021 | -0.0175 ± 0.021 | -0.051 ± 0.011

Reference: the supplement of paper PMC10331698
